Legend:
[1] = Reversion of phosphonate to orthophosphate by oxidizing biocides; assay type: physicochemical; settings: 10 ppm oxidant (as Cl2) dosed, pH 9.1, 23° C.
Description: The biocides studied consisted of WELLGUARD® 7030, bleach (NaOCl), and activated sodium bromide (NaOCl and NaBr). The WELLGUARD® 7030 and bleach were added directly. Activated sodium bromide was prepared in situ by introducing 20 ppm bromide ion to the stock solution followed by addition of bleach. The phosphonates used in this work consisted of AMP (aminomethylene phosphonic acid), HEDP (hydroxyethylidene diphosphonic acid), and PBTC (phosphonobutanetricarboxylic acid). These materials were commercial samples (Mayoquest 1320, 1500, and 2100, respectively) obtained from Callaway Chemical Co. (Smyrna, Ga.).
Solutions consisting of 5 ppm scale inhibitor (as active phosphonate) in the presence of 10 ppm oxidant (as Cl2) were prepared as follows. To 900 mL deionized water were added appropriate stock solutions containing phosphonate, alkalinity (NaHCO3), and calcium hardness (CaCl2). The pH was adjusted to 9.1 with 5% aq. NaOH and diluted up to 1 L in a dark amber bottle. A dose of oxidant was added to achieve a residual of 10 ppm. The solutions were then periodically monitored for phosphonate reversion by determining the reversion to orthophosphate (Hach method 490). The oxidant residual was also periodically monitored using the DPD method (Hach method 80). All of this work was performed at room temperature (23° C.). […]

Medinia beryllina larvae = assay: 48-hour acute LC50 assay, static renewal; assay type: in vivo
Description: (§1) The test concentrations were prepared daily, and used immediately for test initiation and renewal. The total residual chlorine was measured in the highest concentration tested for each sample. The measured chlorine concentrations were used to calculate the estimated chlorine concentrations at the lower sample dilutions in these tests. Both range finder and definitive assays were conducted.
(§2) A second set of experiments were conducted to mimic aged treated seawater. This attempted to model water that had been held in a pipeline for 24 hours, and then discharged. The experiments were identical to those described in the preceding paragraph, except that the highest test concentrations were prepared 24 hours before exposure to the test organisms. These same solutions were then used to prepare the 24 hour static renewal concentrations. The residual chlorine concentrations were measured when the test organisms were initially exposed to the toxic insult. These measurement were used to calculate the estimated chlorine concentrations at the lower sample dilutions in these tests, and after the static renewal at 24 hours.

[2] = system: Mysidopsis bahia juveniles; assay: 48-hour acute LC50 assay, static renewal; assay type: in vivo
Description: as §1, §2

[3] = aged: highest test concentrations prepared 24 hours before exposure
[4] = fresh test solutions, static renewal at 24 hours

In the case of `[Na+].[O-]Cl` [Bleach, NaOCl], the “Cl2 (oxidant residual)” value ([1]; 5 ppm AMP, 460 minutes) is reported as 9.4 ppm, the “Cl2 (oxidant residual)” value ([1]; 5 ppm HEDP, 400 minutes) is reported as 10.6 ppm and the “48-hour acute LC50” value (Medinia beryllina larvae; [3]) is reported as 0.50 ppm as Cl2. For the same compound, the “48-hour acute LC50” value (Medinia beryllina larvae; [4]) was 0.57 ppm as Cl2, the “48-hour acute LC50” value [2, 3] was 0.42 ppm as Cl2 and the “48-hour acute LC50” value [2, 4] was 0.34 ppm as Cl2.

Reference: patent publication US20080047904A1, “Treatment for Hydrostatic Testing Water” (priority 2004, published 2008)
